One assay addresses T1, HIF-2α (Homo sapiens, UniProt Q99814).
T1 construct: endogenous in cells; host or cells: 786-O cells (ATCC CRL-1932) stably carrying the Cignal Lenti HIF Luc Reporter
Description: HIF-2α Luciferase Reporter Assay. It counts as cell-based. To be noted: HIF-Luc-786-0 cells, 20 hours incubation, luciferase activity; read-out: HIF-2α Luciferase Assay. As to the method:
Stable cell lines were generated by transducing 786-O cells (ATCC, CRL-1932) with Cignal Lenti HIF Luc Reporter lentivirus (CLS-007L, Qiagen) according to the manufacturer's guidelines. In brief, 0.3×10^6 786-0 cells were transduced with lentivirus at a Multiplicity of Infection (MOI) of 25 for 24 hours. After transduction, cells were replenished with fresh RPMI 1640 Medium (Cat. No. 11875085, Thermo Fisher,) supplemented with 10% FBS (Cat. No. A3160502, Gibco), 2 mM GlutaMax (Cat. No. 35050-061, Invitrogen) and 100 units of penicillin and 100 μg of streptomycin/mL (Cat. No 15070063, Thermo Fisher) for another 24 hours. Antibiotic selection was performed in cell media containing 4 μg/mL of Puromycin. After 7 days of antibiotic selection, stable pools of surviving cells were expanded and used in a luciferase reporter assay.
On day one, 20 uL of HIF-Luc-786-0 cells in OptiMem (Cat. No. 31985088, Thermo Fisher) were seeded into each well of a 384 well white opaque plate (Corning 3570) and incubated at 37° C. and 5% CO2. Twenty microliters of 2× test compounds in OptiMem were added to cells after 4 hours of incubation. Final assay conditions comprised 20,000 cells per well in 1% DMSO with test compound concentrations ranging from 50 uM to 0 uM. After 20 hours incubation at 37° C. and 5% CO2, luciferase activity was determined using ONE-Glo Luciferase Assay Reagent (E6110, Promega) following the manufacture's recommended procedure. Briefly, 40 uL of ONE-Glo luciferase reagents were added to each well and luciferase signals were measured using an Envision 2102 Multilabel Reader. Percentage maximum activity in each test well was calculated based on DMSO (maximum activity) and no cell control wells (baseline activity). The IC50 values of the test compounds were determined from compound dose response curves fitted using a standard four parameter fit equation.
(In general: In a reporter assay the amount or activity of a reporter protein is the signal.)

Assay [1] addresses T2, Histidine tagged HIF-2α protein containing PAS-B domain (240-350) (Homo sapiens, UniProt Q99814).
T2 construct: Histidine tagged HIF-2α protein containing PAS-B domain (240-350) was prepared and purified in house; made in house
Description: HIF-2α Scintillation Proximity Assay (SPA). It counts as binding. The settings on record: 50 nM HIF-2α protein, 25 nM radiolabeled tracer; read-out: HIF-2α Scintillation Proximity Assay. The method, then: Tritium labeled compound N-(3-chlorophenyl)-4-nitro-2,1,3-benzoxadiazol-5-amine was obtained from American Radiolabeled Chemicals Inc. and copper chelate PVT SPA beads were from PerkinElmer (Cat #RPNQ0095). Histidine tagged HIF-2α protein containing PAS-B domain (240-350) was prepared and purified in house.
Compounds solubilized in DMSO were dispensed into a white 384-well polystyrene non-binding flat clear bottom plate (Greiner Bio-One, Cat #781903) using an HP D300 dispenser. Ten microliters of HIS-tagged HIF-2α protein in buffer (25 mM Tris-HCl, pH 7.4, 150 mM NaCl, 0.15% BSA and 0.001% Tween 20) was added to the compound wells and allowed to incubate for 1 hour at room temperature. Ten microliters of SPA bead mix were added to the wells and incubated for an additional 45 minutes, followed by 10 ul of ^3H-tracer solution. Final assay conditions comprised 50 nM HIF-2α protein, 25 nM radiolabeled tracer and 3 ug beads per well with compounds in 2% DMSO. The plate was read using a MicroBeta Microplate Counter (PerkinElmer) for luminescence detection. The IC50 values of the test compounds were determined from compound dose response curves fitted using a standard four parameter fit equation and are reported in Table 1.
(In a scintillation proximity assay essentially only radioactivity close to the scintillant gives light.)

T2 sequence (Q99814 240-350): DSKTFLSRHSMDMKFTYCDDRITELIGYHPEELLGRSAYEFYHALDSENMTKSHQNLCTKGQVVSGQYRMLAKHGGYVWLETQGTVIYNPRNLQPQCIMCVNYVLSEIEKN
T1 sequence (Q99814 whole entry): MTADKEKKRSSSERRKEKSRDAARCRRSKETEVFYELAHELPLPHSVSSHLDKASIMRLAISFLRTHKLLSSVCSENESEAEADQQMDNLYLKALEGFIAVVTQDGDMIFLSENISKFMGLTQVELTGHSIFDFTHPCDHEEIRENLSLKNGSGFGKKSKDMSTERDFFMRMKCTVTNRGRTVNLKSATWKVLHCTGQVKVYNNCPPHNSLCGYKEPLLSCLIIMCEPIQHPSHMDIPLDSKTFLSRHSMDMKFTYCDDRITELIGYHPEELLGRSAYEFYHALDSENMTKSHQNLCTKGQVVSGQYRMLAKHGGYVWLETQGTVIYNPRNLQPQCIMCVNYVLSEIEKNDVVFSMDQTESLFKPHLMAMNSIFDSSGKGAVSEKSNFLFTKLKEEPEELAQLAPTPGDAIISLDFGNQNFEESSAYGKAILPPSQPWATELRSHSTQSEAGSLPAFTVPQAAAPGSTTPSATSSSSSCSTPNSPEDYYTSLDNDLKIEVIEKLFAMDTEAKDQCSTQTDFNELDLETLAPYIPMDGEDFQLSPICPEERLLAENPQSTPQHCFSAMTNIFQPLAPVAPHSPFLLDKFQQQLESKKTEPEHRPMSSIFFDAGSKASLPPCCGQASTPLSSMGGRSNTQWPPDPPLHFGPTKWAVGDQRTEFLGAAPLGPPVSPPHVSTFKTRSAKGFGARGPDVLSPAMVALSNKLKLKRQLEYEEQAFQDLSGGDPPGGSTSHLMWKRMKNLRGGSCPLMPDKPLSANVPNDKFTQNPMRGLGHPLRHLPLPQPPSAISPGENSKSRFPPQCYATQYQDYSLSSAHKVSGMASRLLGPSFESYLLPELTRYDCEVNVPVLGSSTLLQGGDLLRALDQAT

Regarding `N#Cc1cc(F)cc(Oc2c(F)cc(S(=O)(=O)C(F)(F)F)c3[nH]ncc23)c1` [Example 64, 3-Fluoro-5-[(5-fluoro-7-trifluoromethanesulfonyl-1H-indazol-4-yl)oxy]benzonitrile], the IC50 at HIF-2α was more than 10 µM; in assay [1], 1 to 10 µM.

Regarding `N#Cc1cc(F)cc(Oc2ccc(S(=O)(=O)C(F)F)c3[nH]nc(I)c23)c1` [Example 13, 5-[7-(Difluoromethylsulfonyl)-3-iodo-1H-indazol-4-yloxy]-3-fluorobenzonitrile], the IC50 at HIF-2α was 1 to 10 µM; in assay [1], more than 10 µM.

For `COc1ccc(Oc2ccc(S(=O)(=O)C(F)(F)F)c3[nH]ncc23)cc1` [Example 20, 4-(p-Methoxyphenoxy)-7-(trifluoromethylsulfonyl)-1H-indazole], the IC50 (at HIF-2α; in assay [1]) was more than 10 µM in each case.

In the case of `O=S(=O)(c1ccc(Oc2ccc(Cl)c(F)c2)c2cn[nH]c12)C(F)(F)F` [Example 33, 4-(4-Chloro-3-fluorophenoxy)-7-(trifluoromethylsulfonyl)-1H-indazole], the IC50 (at HIF-2α; in assay [1]) was more than 10 µM in each case.

`O=S(=O)(c1ccc(NCc2ccc(F)cc2C(F)(F)F)c2cn[nH]c12)C(F)(F)F` [Example 55, N-[[4-fluoro-2-(trifluoromethyl)phenyl]methyl]-7-(trifluoromethylsulfonyl)-1H-indazol-4-amine]: the IC50 (on HIF-2α; in assay [1]) was more than 10 µM each time.

On to `Cc1cc(C#N)cc(Oc2ccc(S(=O)(=O)C(F)(F)F)c3[nH]ncc23)c1` [Example 28, 3-Methyl-5-[[7-(trifluoromethylsulfonyl)-1H-indazol-4-yl]oxy]benzonitrile], for which the IC50 (at HIF-2α; in assay [1]) was 1 to 10 µM throughout.

Take `N#Cc1cc(F)cc(Oc2ccc(S(=O)(=O)C(F)F)c3[nH]ncc23)c1` [Example 12, 5-[7-(Difluoromethylsulfonyl)-1H-indazol-4-yloxy]-3-fluorobenzonitrile]: the IC50 (at HIF-2α; in assay [1]) was 1 to 10 µM throughout.

For the molecule `O=S(=O)(c1ccc(NCc2cc(Cl)cc(Cl)c2)c2cn[nH]c12)C(F)(F)F` [Example 56, N-[(3,5-dichlorophenyl)methyl]-7-(trifluoromethylsulfonyl)-1H-indazol-4-amine], the IC50 (on HIF-2α; in assay [1]) was more than 10 µM in each case.

Consider `N#Cc1cc(F)cc(Oc2ccc(S(=O)(=O)C(F)(F)F)c3[nH]nc(Cl)c23)c1` [Example 61, 3-[(3-Chloro-7-trifluoromethanesulfonyl-1H-indazol-4-yl)oxy]-5-fluorobenzonitrile], for which the IC50 at HIF-2α is more than 10 µM; in assay [1] it was less than 1 µM.

On to `CS(=O)(=O)c1ccc(Nc2cc(F)cc(C#N)c2)c2c(F)n[nH]c12` [Example 2, 3-Fluoro-5-[(3-fluoro-7-methanesulfonyl-1H-indazol-4-yl)amino]benzonitrile], for which the IC50 is 1 to 10 µM on HIF-2α and more than 10 µM in assay [1].

For the molecule `O=S(=O)(c1ccc(Oc2cc(Cl)cc(OC(F)(F)F)c2)c2cn[nH]c12)C(F)(F)F` [Example 29, 4-[3-Chloro-5-(trifluoromethoxy)phenoxy]-7-(trifluoromethylsulfonyl)-1H-indazole], the IC50 (on HIF-2α; in assay [1]) was more than 10 µM throughout.

As for `O=S(=O)(c1ccc(Oc2ccc(F)c(Cl)c2)c2cn[nH]c12)C(F)(F)F` [Example 38, 4-(3-Chloro-4-fluorophenoxy)-7-(trifluoromethylsulfonyl)-1H-indazole], the IC50 (at HIF-2α; in assay [1]) was 1 to 10 µM each time.

In the case of `N#Cc1cc(F)cc(Oc2cnc(C(F)(F)F)c3[nH]ncc23)c1` [Example 68, 3-Fluoro-5-{[7-(trifluoromethyl)-1H-pyrazolo[3,4-c]pyridin-4-yl]oxy}benzonitrile], the IC50 (at HIF-2α; in assay [1]) was 1 to 10 µM each time.

Take `Cc1cncc(Oc2ccc(S(=O)(=O)C(F)(F)F)c3[nH]ncc23)n1` [Example 21, 4-[(6-Methylpyrazin-2-yl)oxy]-7-trifluoromethanesulfonyl-1H-indazole]: the IC50 (on HIF-2α; in assay [1]) was more than 10 µM throughout.

These data come from US20230024438A1, “INHIBITORS OF HIF-2ALPHA” (ARCUS BIOSCIENCES, INC., priority 2019, published 2023).
